The text below walks through data of ChEMBL document CHEMBL1201862, “PubChem BioAssay data set” (2004).

Some targets named below: Cytochrome P450 2C9 (Homo sapiens, UniProt P11712); Cytochrome P450 2D6 (Homo sapiens, UniProt P10635); Cytochrome P450 3A4 (Homo sapiens, UniProt P08684).
For a further assay, the target named is T1, Cytochrome P450 1A2 (Homo sapiens, UniProt P05177).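 Also: PubChem cytochrome P450 panel assay, CYP1A2 panel member.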
T1 sequence (P05177 whole entry): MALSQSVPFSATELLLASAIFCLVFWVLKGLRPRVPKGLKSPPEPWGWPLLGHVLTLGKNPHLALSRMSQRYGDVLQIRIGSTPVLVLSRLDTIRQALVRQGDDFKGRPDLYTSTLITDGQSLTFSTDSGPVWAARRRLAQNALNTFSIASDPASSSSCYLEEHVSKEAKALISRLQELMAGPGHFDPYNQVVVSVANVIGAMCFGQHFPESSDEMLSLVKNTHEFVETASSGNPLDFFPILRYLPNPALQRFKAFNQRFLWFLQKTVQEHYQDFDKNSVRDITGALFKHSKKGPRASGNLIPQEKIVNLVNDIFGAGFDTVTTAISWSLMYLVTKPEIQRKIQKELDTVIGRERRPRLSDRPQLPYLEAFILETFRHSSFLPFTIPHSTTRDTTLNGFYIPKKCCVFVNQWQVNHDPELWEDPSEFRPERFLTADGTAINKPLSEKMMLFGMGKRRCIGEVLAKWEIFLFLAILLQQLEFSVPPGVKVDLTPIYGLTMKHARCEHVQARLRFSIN

The nature of assay [1]: inhibitors of firefly luciferase expression or activity, dose response, H4 neuroglioma cells, luminescence (AID 1990). It is filed as functional, cell-based.
Assay [2] can be described thus: inhibitors of SNCA 5'UTR-driven reporter translation, confirmation, H4 neuroglioma cells, luminescence (AID 1988). The class given is functional, cell-based.
A short description of assay [3]: Luminescence Cell-Based Dose Response HTS to Identify Inhibitors of 5'UTR Stem-Loop Driven Prion Protein mRNA Translation in H4 Neuroglioblastoma Cells. [Related pubchem assays: 1827 (Project Summary), 1813 (Primary HTS)]. It is filed as functional.
Another assay has as its system H9c2. As to the kind of experiment: cells. It is filed as functional, cell-based. Particulars: Rattus norvegicus, H9c2, Myocardium.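 Also: confirmatory concentration-response retest of ultra-high-throughput screening hits for modulation of myocardial damage; cell death induced by hydrogen peroxide oxidative stress; compound pretreatment for 60 min then peroxide exposure for 2 h; potency is for protecting the cells against peroxide damage rather than for killing them.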
Assay [4] in a line: HEp-2 cell cytotoxicity, dose response, cytotoxicity control for RSV inhibitor project, HTS (AID 2410). It is filed as functional. The following applies: human respiratory syncytial virus.
Assay [5] has as its target T2, Corticotropin-releasing factor receptor 2/Corticotropin-releasing factor-binding protein (Homo sapiens, UniProt P24387+Q13324).
T2 sequence (Q13324 whole entry): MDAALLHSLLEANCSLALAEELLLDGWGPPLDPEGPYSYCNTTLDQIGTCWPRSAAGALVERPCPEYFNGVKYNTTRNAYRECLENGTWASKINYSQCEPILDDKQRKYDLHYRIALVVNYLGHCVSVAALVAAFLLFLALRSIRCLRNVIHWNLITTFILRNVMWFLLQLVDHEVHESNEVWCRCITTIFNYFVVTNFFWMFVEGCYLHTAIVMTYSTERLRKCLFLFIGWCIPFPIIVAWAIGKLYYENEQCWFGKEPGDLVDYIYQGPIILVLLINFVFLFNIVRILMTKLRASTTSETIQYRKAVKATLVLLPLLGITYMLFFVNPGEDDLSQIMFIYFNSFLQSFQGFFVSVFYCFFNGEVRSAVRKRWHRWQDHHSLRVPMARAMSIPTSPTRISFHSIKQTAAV
T2 sequence (P24387 whole entry): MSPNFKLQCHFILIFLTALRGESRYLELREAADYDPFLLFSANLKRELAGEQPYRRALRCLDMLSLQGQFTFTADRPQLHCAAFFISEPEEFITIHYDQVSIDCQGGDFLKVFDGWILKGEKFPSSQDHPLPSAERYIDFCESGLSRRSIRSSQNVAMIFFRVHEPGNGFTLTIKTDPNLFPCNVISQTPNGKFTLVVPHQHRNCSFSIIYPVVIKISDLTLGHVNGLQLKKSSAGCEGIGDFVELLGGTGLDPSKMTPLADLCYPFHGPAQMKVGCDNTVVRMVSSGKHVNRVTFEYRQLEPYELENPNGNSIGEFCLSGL
Briefly: activators of CRF receptor 2 with binding protein – uHTS hits, confirmation (AID 602473). The class given is functional. The following applies: read-out: EC50_Mean.

Assay [6] can be described thus: inhibitors of intracellular T. cruzi replication, confirmation, NIH3T3 host cells, beta-gal luminescence (AID 2044).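 Also: intracellular parasites grown in NIH/3T3 mouse fibroblasts as host cells; luminescent beta-galactosidase reporter signal from transgenic T. cruzi replicating inside host cells; inhibitors lower the luminescence signal.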 It is filed as functional, cell-based.
The nature of assay [7]: cytotoxicity toward NIH3T3 fibroblasts, dose response, counter-screen, cell-based, ATP luminescence, mouse fibroblasts (AID 2010).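 Also: cells exposed to compound for about 90 hours before reading.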 It is filed as functional. A general note: The purpose of a counterscreen is to sort out artefacts and off-target activity.
In the next assay the target is Cytochrome P450 2C19 (Homo sapiens, UniProt P33261). Briefly: Cytochrome panel assay with activity outcomes. Panel member name: p450-cyp2c19 Compounds with AC50 equal or less than 10 uM are considered active. It is filed as functional. The following applies: read-out: AC50.
Chain of Cytochrome P450 2C19 (P33261 whole entry): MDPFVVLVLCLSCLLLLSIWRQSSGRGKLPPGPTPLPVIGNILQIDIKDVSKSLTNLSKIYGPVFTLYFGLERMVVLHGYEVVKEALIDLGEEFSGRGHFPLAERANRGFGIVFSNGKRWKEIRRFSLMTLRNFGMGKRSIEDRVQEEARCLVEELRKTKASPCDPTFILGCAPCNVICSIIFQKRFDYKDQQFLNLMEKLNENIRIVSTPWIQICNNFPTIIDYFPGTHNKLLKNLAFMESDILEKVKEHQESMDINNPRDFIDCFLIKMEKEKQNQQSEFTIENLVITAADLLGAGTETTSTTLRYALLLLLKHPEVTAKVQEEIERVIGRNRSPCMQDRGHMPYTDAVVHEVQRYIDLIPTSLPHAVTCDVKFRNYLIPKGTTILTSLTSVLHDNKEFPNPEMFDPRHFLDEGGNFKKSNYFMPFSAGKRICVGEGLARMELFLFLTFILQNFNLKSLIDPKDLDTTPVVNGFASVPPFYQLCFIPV
For assay [8], the target named is FAD-linked sulfhydryl oxidase ALR (Homo sapiens, UniProt P55789). Briefly: inhibitors of human ALR sulfhydryl oxidase, dose response, biochemical, H2O2 detection, luminescence, cherry-pick (AID 493248).
Chain of FAD-linked sulfhydryl oxidase ALR (P55789 whole entry): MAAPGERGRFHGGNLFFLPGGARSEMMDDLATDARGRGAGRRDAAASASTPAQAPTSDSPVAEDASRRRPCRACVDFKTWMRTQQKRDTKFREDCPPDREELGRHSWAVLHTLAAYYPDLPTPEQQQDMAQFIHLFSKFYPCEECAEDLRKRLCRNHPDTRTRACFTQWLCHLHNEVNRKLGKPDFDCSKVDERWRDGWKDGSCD

Active and inactive are the calls of the source.

Chain of Cytochrome P450 2C9 (P11712 whole entry): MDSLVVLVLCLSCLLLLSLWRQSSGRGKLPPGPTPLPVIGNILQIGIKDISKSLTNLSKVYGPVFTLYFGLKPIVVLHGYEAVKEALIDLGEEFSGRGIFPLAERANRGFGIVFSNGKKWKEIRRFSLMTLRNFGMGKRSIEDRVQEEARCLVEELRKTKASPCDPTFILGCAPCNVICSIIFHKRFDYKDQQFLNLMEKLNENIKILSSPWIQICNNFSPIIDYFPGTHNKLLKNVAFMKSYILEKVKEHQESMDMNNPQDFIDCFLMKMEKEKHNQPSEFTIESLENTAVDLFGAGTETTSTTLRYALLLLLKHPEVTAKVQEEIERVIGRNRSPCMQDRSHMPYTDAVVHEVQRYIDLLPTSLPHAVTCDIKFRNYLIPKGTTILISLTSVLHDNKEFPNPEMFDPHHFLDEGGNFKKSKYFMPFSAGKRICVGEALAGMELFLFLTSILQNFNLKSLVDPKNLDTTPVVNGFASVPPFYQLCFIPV
Chain of Cytochrome P450 2D6 (P10635 whole entry): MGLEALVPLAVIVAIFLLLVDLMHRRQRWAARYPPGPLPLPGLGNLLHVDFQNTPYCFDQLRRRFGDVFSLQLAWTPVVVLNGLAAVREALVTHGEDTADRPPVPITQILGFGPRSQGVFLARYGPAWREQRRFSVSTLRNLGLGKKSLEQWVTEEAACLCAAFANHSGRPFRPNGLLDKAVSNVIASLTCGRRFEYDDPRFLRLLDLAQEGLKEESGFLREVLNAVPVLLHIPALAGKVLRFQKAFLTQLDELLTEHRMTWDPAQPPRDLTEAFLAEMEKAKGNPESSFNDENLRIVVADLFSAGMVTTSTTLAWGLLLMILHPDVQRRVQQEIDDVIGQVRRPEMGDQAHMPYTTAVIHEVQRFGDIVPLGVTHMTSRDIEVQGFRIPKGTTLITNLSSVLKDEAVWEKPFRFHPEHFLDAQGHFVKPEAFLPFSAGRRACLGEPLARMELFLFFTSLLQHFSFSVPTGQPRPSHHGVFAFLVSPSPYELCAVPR
Chain of Cytochrome P450 3A4 (P08684 whole entry): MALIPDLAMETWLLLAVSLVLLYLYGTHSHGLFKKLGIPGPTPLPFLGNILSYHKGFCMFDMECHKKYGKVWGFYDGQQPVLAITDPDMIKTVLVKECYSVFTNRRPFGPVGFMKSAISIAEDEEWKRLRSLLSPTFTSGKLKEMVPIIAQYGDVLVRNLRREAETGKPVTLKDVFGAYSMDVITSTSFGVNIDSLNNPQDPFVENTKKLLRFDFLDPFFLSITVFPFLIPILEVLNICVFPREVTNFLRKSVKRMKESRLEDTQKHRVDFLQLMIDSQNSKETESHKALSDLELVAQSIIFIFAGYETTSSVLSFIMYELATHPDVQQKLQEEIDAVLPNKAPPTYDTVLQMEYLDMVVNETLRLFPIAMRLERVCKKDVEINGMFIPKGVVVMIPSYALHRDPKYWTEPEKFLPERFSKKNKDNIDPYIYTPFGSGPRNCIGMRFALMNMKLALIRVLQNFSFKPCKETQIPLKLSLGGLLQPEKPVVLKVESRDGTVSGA

The term AC50 denotes the midpoint of the concentration-response curve, whichever way the signal moves. As for `CCN(CC)C(=O)c1ccc(O)c(OC)c1`, the AC50 on Cytochrome P450 1A2 is 12.6 µM (inconclusive).

`O=S(=O)(c1ccc(Br)cc1)N1CCC(c2nc3ccccc3[nH]2)CC1`: the values for the EC50 in [1] and in assay [2] were 11.9 µM (active) and > 120 µM (not active), respectively. Regarding `COc1ccc(CCNS(=O)(=O)c2cn(C)cn2)cc1OC`, the EC50 in assay [1], in [3] and in assay [2] was > 120 µM (not active) in each case. `Cc1nnc(NC(=O)c2cccc(NC(=O)C(C)C)c2)s1`: the AC50 on Cytochrome P450 1A2 was 39.8 µM (inconclusive); at Cytochrome P450 2C9 it was 25.1 µM (inconclusive). The term IC50 denotes the point on the concentration scale where inhibition reaches its midpoint. For `CC(C)(C)OC(=O)CNC(=O)c1[nH]cnc1C(=O)NC(c1ccccc1)c1ccccc1`, in the assay on H9c2, the IC50 was > 79 µM (inactive).

As for `CCN(CC)C(=O)CSc1nc(O)c2ccccc2n1`, the IC50 with H9c2 was > 79 µM (inactive). With `COc1cc(/C=C/c2n[nH]c(-c3ccccc3O)n2)cc(OC)c1OC`, the IC50 in the assay with H9c2 is > 79 µM (inactive). For the compound `CN(C(=O)COC(=O)c1c2c(nc3ccccc13)/C(=C/c1cccc([N+](=O)[O-])c1)CCC2)C1CCS(=O)(=O)C1` (centres undefined), the EC50 was 11.6 µM (active) in assay [1], > 120 µM (not active) in assay [3] and 11 µM (active) in assay [2]. By CC50 is commonly meant the concentration at which the toxic effect on the cells reaches its halfway point. Take `CCC1Nc2ncnc(N3CCN(c4ccccc4)CC3)c2N(Cc2ccc(Cl)cc2)C1=O` (centres undefined): the 50% cytotoxic concentration (CC50) in assay [4] is 16.6 µM (active). `COc1ccc2cc3cc(C(=O)Nc4cc(OC)c(OC)c(OC)c4)oc3nc2c1`: in the assay with H9c2, the IC50 is > 79 µM (inactive).

With `COc1ccc(-c2c(-c3ccsc3)oc(=O)c3cc(OC)c(OC)cc23)cc1`, the CC50 in assay [4] was 47.2 µM (active). Consider `O=c1ccc(NS(=O)(=O)c2ccc(Cl)cc2)cn1Cc1ccc(Cl)c(Cl)c1`, for which the concentration at half-maximal activity (AC50) on Cytochrome P450 1A2 is 28.2 µM (inconclusive).

Consider `Cc1cccc(C(=O)O)c1C[C@H]1NCC[C@H]2c3ccccc3N[C@@H]12`, for which, on Cytochrome P450 1A2, the AC50 was 0.0631 µM (inconclusive). For `CN(C)Cc1ccccc1Sc1ccc2c(c1)CCCC2`, the EC50 in [1] is > 120 µM (not active); in assay [3], 32.4 µM (active); in [2], > 120 µM (not active). For the compound `Brc1ccccc1OCCCOc1cccc2cccnc12`, in assay [4], the CC50 is 26.3 µM (active). Turning to `CCOc1ccc(C2C=C(c3ccc(C)cc3)Nc3nnnn32)cc1` (centres undefined), the EC50 in assay [5] is > 53 µM (inactive). Turning to `Cc1cccc(N2CCN(C(=O)CCCn3c(=S)[nH]c4cc5c(cc4c3=O)OCO5)CC2)c1C`, the CC50 in assay [4] was 23.4 µM (active). Besides, the EC50 in assay [6] was 0.389 µM (active); in [7], > 30 µM (not active). For the same compound, the half-maximal activity concentration (AC50) at Cytochrome P450 2D6 is 10 µM (inconclusive). Turning to `CCNc1ncc2nc(-c3ccccc3)c(=O)n(CCc3ccccc3)c2n1`, the AC50 at Cytochrome P450 1A2 is 12.6 µM (inconclusive); at Cytochrome P450 3A4 it was 15.8 µM (inconclusive); at Cytochrome P450 2C9, 1.26 µM (inconclusive). For the compound `CC1(c2ccccc2)NC(=O)N(CC(=O)Nc2cccc(/C=C/c3ccccn3)c2)C1=O` (centres undefined), the IC50 with H9c2 is > 79 µM (inactive).

For `COC(=O)[C@@]1(Cc2ccc(F)cc2)[C@H]2c3cc(C(=O)N(C)C)n(C)c3C[C@H]2CN1C(=O)c1ccccc1`, the figures for the AC50 at Cytochrome P450 2C19 and at Cytochrome P450 1A2 were 25.1 µM (inconclusive) and 31.6 µM (inconclusive), respectively. In the case of `CN(C)c1cc(=O)n2c(n1)SCCC2`, the half-maximal activity concentration (AC50) at Cytochrome P450 2C19 is 28.2 µM (inconclusive); on Cytochrome P450 1A2, 12.6 µM (inconclusive).

Consider `COc1ccc(-n2c(=O)c(CCc3ccccc3)nc3cncnc32)cc1`, for which the AC50 is 25.1 µM (inconclusive) at Cytochrome P450 1A2 and 20 µM (inconclusive) at Cytochrome P450 2C9. For `COc1ccccc1NC(=O)Nc1ncccc1C`, in assay [8], the half-maximal activity concentration (AC50) is 0.903 µM (active). In the case of `CCC(C)c1ccc(NC(S)=NCCn2cc(Br)cn2)cc1` (centres undefined), the EC50 in assay [1], in assay [3] and in [2] was > 120 µM (not active) throughout.

Consider `CCc1c(C)nc(Nc2nc(C)c3ccc(OC)cc3n2)nc1O`, for which the IC50 in the assay on H9c2 was > 79 µM (inactive). With `Cc1cc(OCC(=O)N2CCOCC2)cc2oc(=O)c3ccccc3c12`, in the assay with H9c2, the IC50 is > 79 µM (inactive). With `Cc1ccc2nc(NC(=O)[C@H](C)N3C(=O)C4CC=CCC4C3=O)sc2c1` (some centres undefined), the EC50 in assay [1] is 0.556 µM (inconclusive); in assay [3], > 120 µM (not active). On to `COc1ccc(C(=O)[C@H]2[C@H]3C(=O)N(c4ccccc4)C(=O)[C@H]3C3C=CC=NN32)cc1` (some centres undefined), for which the EC50 in assay [1], in [3] and in assay [2] was > 120 µM (not active) in each case.

With `CCOc1ccc(-n2ccnc2SCC(=O)Nc2nnc(CC)s2)cc1`, the concentration at half-maximal activity (AC50) at Cytochrome P450 1A2 is 20 µM (inconclusive). Take `Cc1cccc2c(=O)cc(C)n(CC(N)=O)c12`: in [4], the CC50 was 24.6 µM (active). With `Cc1cc(C)nc(SCc2cccc(C(=O)O)c2)n1`, the EC50 was 17.5 µM (active) in assay [1] and 28.8 µM (active) in assay [2].

In the case of `C(=C\c1nnc2c3ccccc3ncn12)/c1ccccc1`, in assay [3], the EC50 was 7.36 µM (active). Take `CCCC(=O)NC(Nc1ccccc1F)C(Cl)(Cl)Cl` (centres undefined): the AC50 at Cytochrome P450 1A2 was 22.4 µM (inconclusive); at Cytochrome P450 3A4 it was 14.1 µM (inconclusive). Turning to `Brc1ccc(CN2CCN(c3ccccc3)CC2)o1`, the AC50 in [8] is 2.03 µM (active). Regarding `CN(C(=O)CSc1nc(O)c2c(n1)CCCC2)C1CCCCC1`, in the assay with H9c2, the IC50 was 33.3 µM (inactive). With `CCN(CC(=O)Nc1ccc(OC)cc1)C(=O)c1cc(-c2cccs2)nn1-c1ccccc1`, the IC50 in the assay on H9c2 is 36.6 µM (inactive).

As for `FC(F)(F)c1cccc(-c2ccn3ncnc3n2)c1`, in assay [4], the CC50 is 35.5 µM (active). As to `O=C(Nc1ccccc1)c1ccc(-c2ccc(Br)cc2)o1`, the 50% cytotoxic concentration (CC50) in assay [4] is 16.9 µM (active).

`O=C(c1ccc(F)cc1)C1CCN(C(S)=Nc2ccccc2)CC1`: the results for the AC50 on Cytochrome P450 2C19, at Cytochrome P450 2D6 and at Cytochrome P450 1A2 were 7.08 µM (inconclusive), 14.1 µM (inconclusive) and 12.6 µM (inconclusive), respectively.

`COc1cc(-c2cc3nc(NCCc4ccc(S(N)(=O)=O)cc4)ccn3n2)cc(OC)c1OC`: the IC50 with H9c2 was > 79 µM (inactive). Take `CC(=O)OCc1nc(O)c2c(C)c(C)sc2n1`: in the assay with H9c2, the IC50 is > 79 µM (inactive).

For the compound `CN1CCN(/N=C/c2nc(-c3cccc([N+](=O)[O-])c3)n3ccccc23)CC1`, the EC50 in assay [5] is > 53 µM (inactive). Regarding `Cc1cc(/C=N/NC(=O)c2c(Br)cnn2C)c(C)n1-c1cccc(Br)c1`, the CC50 in [4] is 41.5 µM (active). In the case of `C=CCOc1ccc(/C=N/NC(=O)c2cc3c(OC)cc(OC)cc3[nH]2)cc1`, the cytotoxic concentration (CC50) in [4] was 27.4 µM (active). On to `Cc1ccc(/N=C2\C(Cl)=C(O)OC2OC(C)C)c(C)c1` (centres undefined), for which the EC50 was > 120 µM (not active) in [1], 24.8 µM (active) in assay [3] and > 120 µM (not active) in assay [2]. As to `O=c1[nH]nc(Cc2ccccc2)c2ccccc12`, in the assay on H9c2, the IC50 was > 79 µM (inactive).

As to `N[C@@H](CCCP(=O)(O)O)C(=O)O`, the AC50 on Cytochrome P450 1A2 is 31.6 µM (inconclusive).
